Experimental findings from PubChem BioAssay (NCI) are described below.

The structures appear in SMILES notation.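 Interpolation was linear, between the two tested concentrations surrounding the appropriate level; five concentrations were tested over 48 hours in 96-well plates. Definition used: TGI = concentration required for complete inhibition of growth.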

Test systems include OVCAR-8 ovarian; MDA-N; SW-620 colon; U251 CNS; RPMI-8226 leukemia; NCI/ADR-RES ovarian; MOLT-4 leukemia; SK-MEL-2 melanoma; UACC-257 melanoma; KM12 colon; IGROV1 ovarian; SN12C renal; MALME-3M melanoma; HOP-62 NSCLC; A549 NSCLC; HS 578T breast; SNB-75 CNS; OVCAR-4 ovarian; HT29 colon; BT-549 breast.
Holding throughout (assay): inhibition of tumour cell growth, NCI panel, 48 h

With `c1ccc2c(c1)nc1n2CNCC1`, the TGI with OVCAR-8 ovarian, in the assay with MDA-N, in the assay with SW-620 colon, with U251 CNS, in the assay on RPMI-8226 leukemia and with NCI/ADR-RES ovarian was > 100 µM in each case. Moreover, the TGI with MOLT-4 leukemia, with SK-MEL-2 melanoma, with UACC-257 melanoma, with KM12 colon, with IGROV1 ovarian and in the assay on SN12C renal was > 100 µM in each case. Also, the TGI in the assay on MALME-3M melanoma, in the assay on HOP-62 NSCLC, in the assay with A549 NSCLC, in the assay with HS 578T breast, in the assay with SNB-75 CNS and in the assay on OVCAR-4 ovarian was > 100 µM each time. Besides, the TGI in the assay with HT29 colon and with BT-549 breast was > 100 µM in each case.
As for `CO/N=C(\C(=O)Nc1cncs1)c1csc(NC(c2ccccc2)(c2ccccc2)c2ccccc2)n1`, the TGI in the assay with OVCAR-8 ovarian, in the assay with MDA-N, with SW-620 colon, with U251 CNS, in the assay with RPMI-8226 leukemia and in the assay with NCI/ADR-RES ovarian was > 10 µM throughout. The TGI with MOLT-4 leukemia, in the assay on SK-MEL-2 melanoma, with UACC-257 melanoma, in the assay on KM12 colon, in the assay on IGROV1 ovarian and in the assay on SN12C renal was > 10 µM each time. In addition, the TGI with MALME-3M melanoma, with HOP-62 NSCLC, in the assay with A549 NSCLC, in the assay on HS 578T breast, in the assay on SNB-75 CNS and in the assay on OVCAR-4 ovarian was > 10 µM in each case. Further, the TGI with HT29 colon and with BT-549 breast was > 10 µM throughout.
Consider `Brc1ccc2c(-c3nc(-c4c[nH]c5ccc(Br)cc45)cs3)c[nH]c2c1`, for which the TGI was found to be 25.3 µM in the assay on OVCAR-8 ovarian; 16.4 µM with MDA-N; 24.4 µM in the assay with SW-620 colon; 16.1 µM in the assay with U251 CNS; 14 µM with RPMI-8226 leukemia; 18.1 µM in the assay on NCI/ADR-RES ovarian. Also, the TGI in the assay with MOLT-4 leukemia came to 8.42 µM; with SK-MEL-2 melanoma, 20.7 µM; in the assay on UACC-257 melanoma, 23.6 µM; with KM12 colon it was 8.19 µM; in the assay on IGROV1 ovarian, 16.9 µM; in the assay with SN12C renal, 16.9 µM. Besides, the TGI in the assay with MALME-3M melanoma is 19.4 µM; in the assay on HOP-62 NSCLC it was 29.3 µM; with A549 NSCLC, 17 µM; with HS 578T breast, > 52.9 µM; with SNB-75 CNS, 31.4 µM; with OVCAR-4 ovarian, 24.3 µM. The TGI came out at 3.61 µM in the assay with HT29 colon and 27.8 µM in the assay with BT-549 breast.
In the case of `CCCN=C(NC(=O)c1ccc(Cl)cc1)SC`, the TGI in the assay with OVCAR-8 ovarian, with MDA-N, in the assay with SW-620 colon, in the assay with U251 CNS, in the assay on RPMI-8226 leukemia and in the assay on NCI/ADR-RES ovarian was > 100 µM throughout. Moreover, the TGI in the assay on MOLT-4 leukemia, in the assay on SK-MEL-2 melanoma, in the assay with UACC-257 melanoma, in the assay with KM12 colon, with IGROV1 ovarian and with SN12C renal was > 100 µM each time. Besides, the TGI in the assay with MALME-3M melanoma is > 100 µM; in the assay with HOP-62 NSCLC, > 100 µM; in the assay with A549 NSCLC, > 100 µM; in the assay with HS 578T breast, 95 µM; with SNB-75 CNS, 97.2 µM; with OVCAR-4 ovarian, > 100 µM. Further, the results for the TGI in the assay on HT29 colon and with BT-549 breast were > 100 µM and 89.8 µM, respectively.
In the case of `CCOC(=O)NC(Nc1ccc(S(=O)(=O)Nc2ncccn2)cc1)(C(=O)OCC)C(F)(F)F` (centres undefined), the TGI in the assay on OVCAR-8 ovarian, in the assay with MDA-N, in the assay on SW-620 colon, with U251 CNS, with RPMI-8226 leukemia and in the assay with NCI/ADR-RES ovarian was > 100 µM in each case. The TGI in the assay on MOLT-4 leukemia, in the assay on SK-MEL-2 melanoma, with UACC-257 melanoma, in the assay on KM12 colon, with IGROV1 ovarian and in the assay on SN12C renal was > 100 µM throughout. For the same compound, the TGI with MALME-3M melanoma, in the assay on HOP-62 NSCLC, with A549 NSCLC, with HS 578T breast, with SNB-75 CNS and in the assay on OVCAR-4 ovarian was > 100 µM each time. In addition, the TGI with HT29 colon and in the assay with BT-549 breast was > 100 µM each time.
`Cc1nnc([C@@]2(C)CC[C@H]3[C@@H](CC=C4C[C@@H](O)CC[C@@]43C)[C@@H]2CC#N)o1`: the TGI in the assay with OVCAR-8 ovarian, with MDA-N, in the assay on SW-620 colon, in the assay with U251 CNS, with RPMI-8226 leukemia and in the assay on NCI/ADR-RES ovarian was > 100 µM in each case. For the same compound, the TGI in the assay with MOLT-4 leukemia, in the assay with SK-MEL-2 melanoma, with UACC-257 melanoma, with KM12 colon, with SN12C renal and in the assay on MALME-3M melanoma was > 100 µM in each case. Moreover, the TGI in the assay with HOP-62 NSCLC, in the assay on A549 NSCLC, in the assay on HS 578T breast, in the assay on SNB-75 CNS, in the assay with OVCAR-4 ovarian and with HT29 colon was > 100 µM in each case. Moreover, in the assay with BT-549 breast, the TGI is > 100 µM.
